Legend:
[1] = molecular target: Glutamate receptor ionotropic, NMDA 2B (Rattus norvegicus, UniProt Q00960); assay: Displacement of [3H]-ifenprodil from NR2B receptor in rat brain cerebral cortex membranes incubated for 120 mins by liquid scintillation counting method; type: cell membranes
[2] = Total clearance in Sprague-Dawley rat at 0.5 mg/kg, iv dosed via cassette dosing; type: ADME, organism-based; conditions: in vivo
[3] = Oral bioavailability in Sprague-Dawley rat at 1 mg/kg dosed via cassette dosing; type: ADME, organism-based; conditions: in vivo
[4] = […] coefficient, ratio of total drug level in brain to plasma in Sprague-Dawley rat at 0.5 mg/kg, iv dosed via cassette dosing measured after 0.5 hrs; type: ADME, organism-based; conditions: brain and plasma
[5] = molecular target: Glutamate receptor ionotropic, NMDA 2B (Mus musculus, UniProt P35438+Q01097); assay: Antagonist activity at mouse NR2B receptor expressed in HEK293 cells co-expressing NR1 subunit assessed as reduction in glutamic acid/glycine-induced calcium ion influx by fluorescence based assay; type: cell-based
Rattus norvegicus = assay: Analgesic activity in rat model of partial sciatic nerve ligation model assessed as increase in pain threshold at 2.5 to 10 mg/kg, po measured after 3 hrs by Von Frey filament test; type: functional; conditions: read-out: MED
hERG (KCNH2) = hERG (KCNH2) (Homo sapiens, UniProt Q12809); assay: Inhibition of human ERG expressed in HEK293 cells at 1 uM; type: cell-based; conditions: HEK293 cells expressing human ERG
Chain of hERG (KCNH2) (Q12809 whole entry): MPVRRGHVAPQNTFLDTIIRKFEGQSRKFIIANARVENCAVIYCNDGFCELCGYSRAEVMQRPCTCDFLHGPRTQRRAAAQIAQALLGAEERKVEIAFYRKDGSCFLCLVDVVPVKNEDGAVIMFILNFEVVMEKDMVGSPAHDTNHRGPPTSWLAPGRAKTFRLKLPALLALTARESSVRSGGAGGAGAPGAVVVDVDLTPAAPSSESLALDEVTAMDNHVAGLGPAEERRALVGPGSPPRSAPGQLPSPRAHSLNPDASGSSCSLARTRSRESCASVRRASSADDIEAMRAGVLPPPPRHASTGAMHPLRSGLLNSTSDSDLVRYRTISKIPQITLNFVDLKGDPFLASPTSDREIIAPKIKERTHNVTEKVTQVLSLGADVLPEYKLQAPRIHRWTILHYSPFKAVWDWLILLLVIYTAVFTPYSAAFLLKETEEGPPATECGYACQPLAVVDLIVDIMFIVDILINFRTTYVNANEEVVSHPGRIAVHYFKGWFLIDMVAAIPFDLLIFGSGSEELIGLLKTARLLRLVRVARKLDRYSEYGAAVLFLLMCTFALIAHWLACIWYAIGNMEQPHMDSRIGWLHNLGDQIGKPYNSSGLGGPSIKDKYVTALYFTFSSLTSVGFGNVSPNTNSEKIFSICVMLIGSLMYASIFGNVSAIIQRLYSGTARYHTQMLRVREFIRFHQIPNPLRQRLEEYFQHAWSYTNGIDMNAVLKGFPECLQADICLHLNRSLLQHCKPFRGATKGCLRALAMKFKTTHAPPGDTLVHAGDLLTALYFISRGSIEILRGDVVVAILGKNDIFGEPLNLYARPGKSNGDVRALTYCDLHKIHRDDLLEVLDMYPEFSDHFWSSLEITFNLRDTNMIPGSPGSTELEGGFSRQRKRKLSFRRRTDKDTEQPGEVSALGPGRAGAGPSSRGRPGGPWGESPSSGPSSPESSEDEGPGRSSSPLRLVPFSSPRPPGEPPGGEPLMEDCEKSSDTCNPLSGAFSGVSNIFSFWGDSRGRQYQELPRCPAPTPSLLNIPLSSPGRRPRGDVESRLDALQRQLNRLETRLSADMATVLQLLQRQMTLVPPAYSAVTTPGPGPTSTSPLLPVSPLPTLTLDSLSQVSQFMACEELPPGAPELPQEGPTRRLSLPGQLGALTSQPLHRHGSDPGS

Chain of Glutamate receptor ionotropic, NMDA 2B (Mus musculus, UniProt P35438+Q01097) (Q01097 whole entry, one chain of several): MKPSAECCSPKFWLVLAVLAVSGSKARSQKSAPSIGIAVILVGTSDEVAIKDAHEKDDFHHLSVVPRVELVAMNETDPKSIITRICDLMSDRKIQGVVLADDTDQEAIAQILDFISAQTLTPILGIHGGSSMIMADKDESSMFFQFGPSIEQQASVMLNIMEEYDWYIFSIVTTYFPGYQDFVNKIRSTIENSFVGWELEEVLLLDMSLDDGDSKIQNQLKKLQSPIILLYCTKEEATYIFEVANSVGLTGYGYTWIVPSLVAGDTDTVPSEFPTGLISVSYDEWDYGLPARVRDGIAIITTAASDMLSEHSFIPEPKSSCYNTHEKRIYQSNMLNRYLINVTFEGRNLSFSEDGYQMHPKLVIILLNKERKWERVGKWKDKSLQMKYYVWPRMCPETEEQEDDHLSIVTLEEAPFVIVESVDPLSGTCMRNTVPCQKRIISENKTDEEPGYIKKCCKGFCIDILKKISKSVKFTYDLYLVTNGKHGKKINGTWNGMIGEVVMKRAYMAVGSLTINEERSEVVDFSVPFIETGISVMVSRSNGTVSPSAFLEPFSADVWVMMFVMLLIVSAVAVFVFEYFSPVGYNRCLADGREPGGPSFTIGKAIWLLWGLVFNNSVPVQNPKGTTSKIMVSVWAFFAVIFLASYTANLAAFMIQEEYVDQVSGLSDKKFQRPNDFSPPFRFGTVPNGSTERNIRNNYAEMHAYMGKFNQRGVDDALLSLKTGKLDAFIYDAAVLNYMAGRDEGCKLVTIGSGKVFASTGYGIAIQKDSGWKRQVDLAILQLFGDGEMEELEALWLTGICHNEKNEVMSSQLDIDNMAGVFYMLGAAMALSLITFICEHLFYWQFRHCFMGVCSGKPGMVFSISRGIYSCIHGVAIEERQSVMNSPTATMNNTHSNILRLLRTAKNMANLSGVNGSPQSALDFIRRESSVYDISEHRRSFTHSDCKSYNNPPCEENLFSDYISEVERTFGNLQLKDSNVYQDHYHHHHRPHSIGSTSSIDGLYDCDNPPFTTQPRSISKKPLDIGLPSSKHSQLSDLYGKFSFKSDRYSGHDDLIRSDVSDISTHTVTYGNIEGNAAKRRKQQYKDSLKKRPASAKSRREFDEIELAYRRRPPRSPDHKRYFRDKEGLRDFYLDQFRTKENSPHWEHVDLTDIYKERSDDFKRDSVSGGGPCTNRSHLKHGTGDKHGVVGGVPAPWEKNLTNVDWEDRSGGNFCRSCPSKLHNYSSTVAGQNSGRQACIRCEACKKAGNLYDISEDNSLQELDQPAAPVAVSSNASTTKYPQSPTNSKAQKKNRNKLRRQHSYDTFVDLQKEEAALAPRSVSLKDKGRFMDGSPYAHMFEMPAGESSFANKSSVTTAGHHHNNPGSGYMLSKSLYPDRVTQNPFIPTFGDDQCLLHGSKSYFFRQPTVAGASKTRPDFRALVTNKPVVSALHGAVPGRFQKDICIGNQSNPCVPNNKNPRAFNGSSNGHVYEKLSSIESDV
Chain of Glutamate receptor ionotropic, NMDA 2B (Rattus norvegicus, UniProt Q00960) (Q00960 whole entry): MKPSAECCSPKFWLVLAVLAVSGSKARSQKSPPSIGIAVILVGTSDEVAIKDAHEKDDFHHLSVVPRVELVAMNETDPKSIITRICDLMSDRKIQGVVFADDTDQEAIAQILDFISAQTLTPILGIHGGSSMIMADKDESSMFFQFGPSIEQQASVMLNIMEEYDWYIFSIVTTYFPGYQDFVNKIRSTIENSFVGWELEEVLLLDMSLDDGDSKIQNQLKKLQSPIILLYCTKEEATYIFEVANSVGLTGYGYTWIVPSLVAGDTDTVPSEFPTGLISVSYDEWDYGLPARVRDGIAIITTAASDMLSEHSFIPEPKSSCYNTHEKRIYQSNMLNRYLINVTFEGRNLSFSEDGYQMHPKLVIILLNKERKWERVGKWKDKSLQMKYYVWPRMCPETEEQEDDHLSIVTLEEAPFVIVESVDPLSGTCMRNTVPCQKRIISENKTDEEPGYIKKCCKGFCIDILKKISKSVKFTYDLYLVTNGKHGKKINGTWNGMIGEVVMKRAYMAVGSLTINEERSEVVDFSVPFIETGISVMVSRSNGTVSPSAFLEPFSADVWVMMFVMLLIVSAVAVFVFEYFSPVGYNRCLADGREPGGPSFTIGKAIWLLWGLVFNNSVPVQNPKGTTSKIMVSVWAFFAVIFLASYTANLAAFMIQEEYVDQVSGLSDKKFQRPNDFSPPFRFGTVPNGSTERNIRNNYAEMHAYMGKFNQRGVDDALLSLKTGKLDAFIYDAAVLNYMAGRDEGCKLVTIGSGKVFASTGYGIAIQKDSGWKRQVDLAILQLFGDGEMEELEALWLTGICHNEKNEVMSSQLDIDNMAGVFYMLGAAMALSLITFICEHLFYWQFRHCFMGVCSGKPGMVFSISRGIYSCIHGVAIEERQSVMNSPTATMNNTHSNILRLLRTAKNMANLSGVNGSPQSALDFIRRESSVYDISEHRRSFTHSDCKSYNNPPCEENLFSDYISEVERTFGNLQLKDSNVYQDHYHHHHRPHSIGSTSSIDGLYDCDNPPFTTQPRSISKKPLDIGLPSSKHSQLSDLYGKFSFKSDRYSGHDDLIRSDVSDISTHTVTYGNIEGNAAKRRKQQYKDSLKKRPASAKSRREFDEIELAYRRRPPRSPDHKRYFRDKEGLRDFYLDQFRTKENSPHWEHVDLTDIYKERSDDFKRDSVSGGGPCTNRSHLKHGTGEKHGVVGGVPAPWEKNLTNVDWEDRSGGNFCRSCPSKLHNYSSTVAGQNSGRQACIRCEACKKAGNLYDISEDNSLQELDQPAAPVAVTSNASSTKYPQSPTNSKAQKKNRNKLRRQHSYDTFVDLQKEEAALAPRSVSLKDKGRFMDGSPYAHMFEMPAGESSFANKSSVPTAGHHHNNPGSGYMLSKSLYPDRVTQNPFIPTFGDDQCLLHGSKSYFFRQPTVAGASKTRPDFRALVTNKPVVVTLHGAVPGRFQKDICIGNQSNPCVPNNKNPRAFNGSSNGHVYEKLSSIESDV

SMILES	IC50 [1] [nM]	clearance [2] [mL/min/kg]	bioavailability [3] [%]	Kp at 0.5 h [4]	IC50 [5] [nM]	minimal effective dose (Rattus norvegicus) [mg/kg]	inhibition at 1 µM (hERG (KCNH2)) [%]
O=C(Nc1ccc2[nH]c(=O)oc2c1)C(=O)N1CCN(c2ccc(Cl)cc2)CC1	15.8	7.2	17.8	0.53	–	–	–
O=C(c1cc(-c2cc[nH]n2)on1)N1CCC(Cc2ccc(F)cc2)CC1	79.4	–	–	–	63.1	–	–
O=C(Nc1ccc2[nH]c(=O)oc2c1)C(=O)N1CCN(c2ccc(F)c(F)c2)CC1	20	4	13	0.82	10	–	–
O=C(Nc1ccc2[nH]c(=O)oc2c1)C(=O)N1CCN(c2cc(F)cc(F)c2)CC1	158	–	–	–	100	–	–
O[C@]1(Cc2cc(-c3cn[nH]c3)on2)CC[C@@H](Cc2ccc(C(F)(F)F)cc2)CC1	100	4	67.5	2.66	12.6	–	–
O=C(c1cc(-c2ccc(=O)[nH]c2)on1)N1CCN(Cc2ccc(Cl)cc2)CC1	> 1000	–	–	–	–	–	–
O=C1Cc2cc(NC(=O)C(=O)N3CCN(c4ccc(Cl)cc4)CC3)ccc2N1	> 1000	–	–	–	–	–	–
COc1ccc(N2CCN(C(=O)C(=O)Nc3ccc4[nH]c(=O)oc4c3)CC2)cc1	251	–	–	–	200	–	–
C[C@@H]1CN(c2ccc(Cl)c(F)c2)CCN1C(=O)C(=O)Nc1ccc2[nH]c(=O)oc2c1	12.6	1.37	30.4	0.99	2	5	29
O=C(c1cc(-c2ccc(=O)[nH]c2)on1)N1CCC(Cc2ccc(Cl)cc2)CC1	25.1	5.4	9.3	0.38	10	–	–
O=C(Nc1ccc2[nH]c(=O)oc2c1)C(=O)N1CCN(c2ccccc2)CC1	> 1000	–	–	–	–	–	–
O=C(c1cc(-c2cc[nH]n2)on1)N1CCC(Cc2ccc(Cl)cc2)CC1	63.1	29.2	0.6	3.27	39.8	–	–
C[C@@H]1CN(c2ccc(F)c(F)c2)CCN1C(=O)C(=O)Nc1ccc2[nH]c(=O)oc2c1	50.1	5.6	118	0.67	6.31	–	–
COc1ccc(N2CCN(C(=O)C(=O)Nc3ccc4[nH]c(=O)oc4c3)CC2)cc1F	15.8	101	0.6	3.17	15.8	–	–
C[C@@H]1CN(C(=O)C(=O)Nc2ccc3[nH]c(=O)oc3c2)CCN1c1ccc(F)c(F)c1	63.1	15.9	25.3	1.89	10	–	–
O=C(c1cc(-c2cc[nH]n2)on1)N1CCC(Cc2ccccc2)CC1	79.4	71.6	0.2	3.89	50.1	–	–

SMILES	IC50 [1] [nM]	clearance [2] [mL/min/kg]	bioavailability [3] [%]	Kp at 0.5 h [4]	IC50 [5] [nM]	minimal effective dose (Rattus norvegicus) [mg/kg]	inhibition at 1 µM (hERG (KCNH2)) [%]
O=C(Nc1ccc2[nH]c(=O)oc2c1)C(=O)N1CCN(c2ccc(Cl)c(F)c2)CC1	12.6	5.6	28.2	0.79	–	–	–
C[C@H]1CN(C(=O)C(=O)Nc2ccc3[nH]c(=O)oc3c2)CCN1c1ccc(Cl)cc1	631	–	–	–	100	–	–
O=C(Nc1ccc2[nH]c(=O)oc2c1)C(=O)N1CCN(Cc2ccc(Cl)cc2)CC1	501	6.8	7.4	0.41	63.1	–	–
O=C(c1cc(-c2ccc(=O)[nH]c2)on1)N1CCN(c2ccc(Cl)cc2)CC1	> 1000	–	–	–	–	–	–
C[C@@H]1CN(c2ccc(Cl)cc2)CCN1C(=O)C(=O)Nc1ccc2[nH]c(=O)oc2c1	31.6	5.4	130	0.95	6.31	10	36
O=C1CCc2cc(NC(=O)C(=O)N3CCN(c4ccc(Cl)cc4)CC3)ccc2N1	> 1000	–	–	–	–	–	–
C[C@H]1CN(c2ccc(Cl)cc2)CCN1C(=O)C(=O)Nc1ccc2[nH]c(=O)oc2c1	> 1000	–	–	–	–	–	–
C[C@@H]1CN(C(=O)C(=O)Nc2ccc3[nH]c(=O)oc3c2)CCN1c1ccc(Cl)c(F)c1	50.1	6	32	1.19	3.16	2.5	10
C[C@@H]1CN(C(=O)C(=O)Nc2ccc3[nH]c(=O)oc3c2)CCN1c1ccc(Cl)cc1	63.1	15.6	52.6	1.85	6.31	10	25
O=C(Nc1ccc2[nH]c(=O)oc2c1)C(=O)N1CCN(c2ccc(C(F)(F)F)cc2)CC1	25.1	15.1	24.8	2.99	6.31	–	–
O=C(c1cc(-c2ccc(=O)[nH]c2)on1)N1CCC(Cc2ccccc2)CC1	63.1	19.3	18.4	0.37	63.1	–	–
O=C(Nc1ccc2[nH]c(=O)oc2c1)C(=O)N1CCN(c2ccc(F)c(Cl)c2)CC1	31.6	18.3	24.6	1.24	10	–	–
O=C(c1cc(-c2ccc(=O)[nH]c2)on1)N1CCC(Cc2ccc(F)cc2)CC1	50.1	19.7	18.4	0.5	39.8	–	–
O=C(Nc1ccc2[nH]c(=O)oc2c1)C(=O)N1CCN(c2ccc(F)cc2)CC1	126	11.1	39.3	–	126	–	–
O=C(Nc1ccc2[nH]c(=O)oc2c1)C(=O)N1CCN(c2ccc(C(F)(F)F)c(F)c2)CC1	15.8	5.6	8.7	0.65	1	–	–
